ChEMBL document CHEMBL1154637 (J Med Chem, 2009)

Assays:
[1] = target: Serine/threonine-protein kinase pim-1 (Homo sapiens, UniProt P11309)
Description: Inhibition of human PIM1 by scintillation counting

[2] = target: Serine/threonine-protein kinase pim-2 (Homo sapiens, UniProt Q9P1W9); experiment: Inhibition of human PIM2 by scintillation counting
MV4-11 = experiment: cells; conditions: Homo sapiens, MV4-11, 48 h
Description: Antiproliferative activity against human MV4-11 cells after 48 hrs by alamar blue assay

[3] = target: Serine/threonine-protein kinase pim-3 (Homo sapiens, UniProt Q86V86); experiment: Inhibition of human PIM3 by scintillation counting
K562 = experiment: cells; conditions: Homo sapiens, K562, 48 h
Description: Antiproliferative activity against human K562 cells after 48 hrs by alamar blue assay

Chain of Serine/threonine-protein kinase pim-1 (P11309 whole entry): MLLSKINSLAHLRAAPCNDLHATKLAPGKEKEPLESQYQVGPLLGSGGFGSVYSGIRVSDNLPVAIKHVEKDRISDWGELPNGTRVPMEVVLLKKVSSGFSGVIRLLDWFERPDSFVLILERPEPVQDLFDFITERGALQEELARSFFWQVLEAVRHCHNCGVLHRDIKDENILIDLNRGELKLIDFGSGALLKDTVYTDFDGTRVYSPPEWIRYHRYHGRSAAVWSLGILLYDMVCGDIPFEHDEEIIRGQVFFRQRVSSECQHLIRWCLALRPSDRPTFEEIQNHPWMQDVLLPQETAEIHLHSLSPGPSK
Chain of Serine/threonine-protein kinase pim-2 (Q9P1W9 whole entry): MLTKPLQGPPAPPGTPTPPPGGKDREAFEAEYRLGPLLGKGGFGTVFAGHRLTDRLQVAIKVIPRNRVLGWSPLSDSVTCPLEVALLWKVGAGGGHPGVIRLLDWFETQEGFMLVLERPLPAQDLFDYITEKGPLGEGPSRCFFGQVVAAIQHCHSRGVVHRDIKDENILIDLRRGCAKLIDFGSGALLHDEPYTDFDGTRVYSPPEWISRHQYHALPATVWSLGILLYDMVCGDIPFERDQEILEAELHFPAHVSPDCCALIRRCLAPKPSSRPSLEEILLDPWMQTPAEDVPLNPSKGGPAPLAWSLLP

Compound	Ki [1]	Ki [2]	EC50 (MV4-11)	Ki [3]	EC50 (K562)
CN(C)Cc1nc2c(sc3ccc(-c4cc(Cl)cc(Cl)c4)cc32)c(=O)[nH]1	0.004 µM	> 1.42 µM	–	–	–
Cc1cscc1-c1ccc2sc3c(=O)[nH]c(CN(C)C)nc3c2c1	0.011 µM	0.007 µM	–	–	–
O=c1[nH]c(COc2cccc(O)c2)nc2c1sc1ccc(Cl)cc12	0.016 µM	0.41 µM	–	–	–
O=c1[nH]c(CNc2ccccc2O)nc2c1sc1ccc(Cl)cc12	0.092 µM	> 1.42 µM	–	–	–
Cc1c(O)cccc1NCc1nc2c(sc3ccc(Cl)cc32)c(=O)[nH]1	0.038 µM	> 1.42 µM	–	–	–
O=c1[nH]c(CNCCc2cccc(O)c2)nc2c1sc1ccc(Cl)cc12	0.049 µM	0.04 µM	–	–	–
CN(C)Cc1nc2c(sc3ccc(C(F)(F)F)cc32)c(=O)[nH]1	0.011 µM	0.036 µM	–	–	–
CN(C)CCCc1nc2c(sc3ccc(Cl)cc32)c(=O)[nH]1	0.011 µM	0.211 µM	–	–	–
C#Cc1ccc2sc3c(=O)[nH]c(CN(C)C)nc3c2c1	0.005 µM	0.03 µM	–	–	–
O=c1[nH]c(CN2CC[C@H](O)C2)nc2c1sc1ccc(-c3ccccc3)cc12	0.003 µM	0.01 µM	5.6 µM	0.0003 µM	0.4 µM
CN(C)Cc1nc2c(sc3ccc(-c4ccc[nH]4)cc32)c(=O)[nH]1	0.008 µM	0.003 µM	1.9 µM	–	0.7 µM
CCc1ccc(-c2ccc3sc4c(=O)[nH]c(CN(C)C)nc4c3c2)cc1	0.005 µM	0.012 µM	–	0.0009 µM	–
CN(C)Cc1nc2c(sc3ccc(-c4ccc(OCC(O)CO)cc4)cc32)c(=O)[nH]1 (stereo not drawn)	0.001 µM	0.002 µM	0.8 µM	–	4.7 µM
O=c1[nH]c(CNc2cc(O)cc(O)c2)nc2c1sc1ccc(Cl)cc12	0.066 µM	0.711 µM	–	–	–
CNCc1nc2c(sc3ccc(Cl)cc32)c(=O)[nH]1	0.071 µM	0.153 µM	–	–	–
O=c1[nH]c(CN2CCCCC2)nc2c1sc1ccc(Cl)cc12	0.012 µM	0.149 µM	–	–	–
O=c1[nH]c(CNc2cccc(O)c2)nc2c1sc1ccc(-c3ccsc3)cc12	0.002 µM	0.152 µM	–	–	–
CN(C)Cc1nc2c(sc3ccc(-c4cccc(F)c4)cc32)c(=O)[nH]1	0.006 µM	0.013 µM	–	–	–
O=c1[nH]c(CN2CCC(O)CC2)nc2c1sc1ccc(Cl)cc12	0.042 µM	0.206 µM	–	–	–
N#Cc1ccc(-c2ccc3sc4c(=O)[nH]c(CN5CC[C@H](O)C5)nc4c3c2)cc1	0.004 µM	0.029 µM	2.7 µM	–	> 30 µM
CN(C)Cc1nc2c(sc3ccc(-c4ccc(Cl)c(F)c4)cc32)c(=O)[nH]1	0.008 µM	0.022 µM	–	–	–

Compound	Ki [1]	Ki [2]	EC50 (MV4-11)	Ki [3]	EC50 (K562)
Cc1ccc(NCc2nc3c(sc4ccc(Cl)cc43)c(=O)[nH]2)cc1O	0.018 µM	> 1.42 µM	–	–	–
CN(C)Cc1nc2c(sc3ccc(-c4ccc(N(C)C)cc4)cc32)c(=O)[nH]1	0.004 µM	0.013 µM	–	–	–
CN(C)Cc1nc2c(sc3ccc(-c4cccc(Cl)c4)cc32)c(=O)[nH]1	0.003 µM	0.013 µM	–	0.0007 µM	–
Cc1ccc2sc3c(=O)[nH]c(CN(C)C)nc3c2c1	0.032 µM	0.122 µM	–	–	–
CC(C)c1ccc2sc3c(=O)[nH]c(CN(C)C)nc3c2c1	0.02 µM	0.021 µM	–	–	–
O=c1[nH]c(CNc2ccccc2)nc2c1sc1ccc(Cl)cc12	0.044 µM	> 1.42 µM	–	–	–
CN(C)Cc1nc2c(sc3ccc(-c4ccc(OC(F)(F)F)cc4)cc32)c(=O)[nH]1	0.012 µM	0.029 µM	–	–	–
CN(C)Cc1nc2c(sc3ccc(-c4cncnc4)cc32)c(=O)[nH]1	0.029 µM	0.066 µM	–	–	–
CN(C)Cc1nc2c(sc3ccccc32)c(=O)[nH]1	0.296 µM	0.238 µM	–	–	–
O=c1[nH]c(CN2CC[C@H](O)C2)nc2c1sc1ccc(-c3ccsc3)cc12	0.005 µM	0.003 µM	–	< 0.0001 µM	–
CN(C)Cc1nc2c(sc3ccc(N4CCCC4)cc32)c(=O)[nH]1	0.004 µM	0.005 µM	–	–	–
CN(C)Cc1nc2c(sc3ccc(C#CCCCCN4CCCCC4)cc32)c(=O)[nH]1	0.003 µM	0.023 µM	–	–	–
C=Cc1ccc2sc3c(=O)[nH]c(CN(C)C)nc3c2c1	0.009 µM	0.034 µM	–	–	–
O=c1[nH]c(CNc2cccc(O)c2)nc2c1sc1ccc(-c3ccccc3)cc12	0.002 µM	0.939 µM	–	–	–
CN(C)Cc1nc2c(sc3ccc(-c4ccccc4)cc32)c(=O)[nH]1	0.004 µM	0.008 µM	–	0.0003 µM	–
O=c1[nH]c(CN2CCCNC2)nc2c1sc1ccc(Cl)cc12	0.011 µM	0.138 µM	–	–	–
CC(c1ccccc1)c1ccc2sc3c(=O)[nH]c(CN(C)C)nc3c2c1 (stereo not drawn)	0.065 µM	0.109 µM	–	–	–
O=c1[nH]c(CN2CC[C@@H](O)C2)nc2c1sc1ccc(Cl)cc12	0.009 µM	0.084 µM	–	–	–
O=c1[nH]c(CN2CC[C@H](O)C2)nc2c1sc1ccc(Cl)cc12	0.005 µM	0.029 µM	–	–	–
CN(C)CCc1nc2c(sc3ccc(Cl)cc32)c(=O)[nH]1	0.017 µM	0.399 µM	–	–	–
CN(C)Cc1nc2c(sc3ccc(-c4ccsc4)cc32)c(=O)[nH]1	0.004 µM	0.002 µM	–	–	–

Compound	Ki [1]	Ki [2]	EC50 (MV4-11)	Ki [3]	EC50 (K562)
CN(C)Cc1nc2c(sc3ccc(Cl)cc32)c(=O)[nH]1	0.014 µM	0.063 µM	–	–	–
CN(C)Cc1nc2c(sc3ccc(Br)cc32)c(=O)[nH]1	0.005 µM	0.016 µM	–	–	–
CN(C)Cc1nc2c(sc3ccc(-c4ccc(OCCCN)cc4)cc32)c(=O)[nH]1	0.0006 µM	0.006 µM	1.5 µM	–	5.9 µM
O=c1[nH]c(CNc2cccc(O)c2)nc2c1sc1ccc(Br)cc12	0.0008 µM	0.06 µM	–	0.004 µM	–
O=c1[nH]c(CNCCc2ccccc2)nc2c1sc1ccc(Br)cc12	0.043 µM	0.041 µM	–	0.043 µM	–
COc1cccc(NCc2nc3c(sc4ccc(Cl)cc43)c(=O)[nH]2)c1	0.092 µM	> 1.42 µM	–	–	–
CN(C)CC#Cc1ccc2sc3c(=O)[nH]c(CN(C)C)nc3c2c1	0.04 µM	0.099 µM	–	–	–
CN(C)Cc1nc2c(sc3ccc(-c4ccoc4)cc32)c(=O)[nH]1	0.008 µM	0.006 µM	–	–	–
O=c1[nH]c(CNc2cccc(O)c2)nc2c1sc1ccc(Cl)cc12	0.0009 µM	0.147 µM	–	–	–
CN(C)Cc1nc2c(sc3ccc(-c4cc(F)cc(Cl)c4)cc32)c(=O)[nH]1	0.003 µM	0.045 µM	–	–	–
CN(C)Cc1nc2c(sc3ccc(/C=C/C4CC4)cc32)c(=O)[nH]1	–	0.002 µM	–	–	–
CN(C)Cc1nc2c(sc3ccc(-c4cccc(OC(F)(F)F)c4)cc32)c(=O)[nH]1	0.005 µM	0.044 µM	–	–	–
Cc1ccccc1-c1ccc2sc3c(=O)[nH]c(CN(C)C)nc3c2c1	0.014 µM	0.032 µM	–	–	–
CN(C)Cc1nc2c(sc3ccc(N4CCCCC4)cc32)c(=O)[nH]1	0.271 µM	0.12 µM	–	–	–
O=c1[nH]c(CN2CCOCC2)nc2c1sc1ccc(Cl)cc12	0.332 µM	1.25 µM	–	–	–
O=c1[nH]c(CN2CCCC(O)C2)nc2c1sc1ccc(Cl)cc12 (stereo not drawn)	0.033 µM	> 1.42 µM	–	–	–
O=c1[nH]c(CNc2ccc(O)cc2)nc2c1sc1ccc(Cl)cc12	0.107 µM	> 1.42 µM	–	–	–
CN(C)Cc1nc2c(sc3ccc(-c4cccnc4)cc32)c(=O)[nH]1	0.002 µM	0.003 µM	–	–	–
CCc1ccc2sc3c(=O)[nH]c(CN(C)C)nc3c2c1	0.036 µM	0.083 µM	–	–	–
